Reference: PMC9107402 (European Journal of Clinical Pharmacology, 2022)
Like-named read-outs stand apart in the source and are kept apart here.

Columns and labels:
[1] = system: CYP3A; assay: Calculated metabolic clearance of microdosed midazolam (limited sampling AUC 2-4 h); conditions: for midazolam metabolic clearance, % of the baseline value: during fluconazole
Experimental: (§1) Blood samples were centrifuged for 10 min at 2500 g and 4 °C, and separated plasma was distributed into 4 aliquots, each stored at − 20 °C until analysis.
Midazolam concentrations in plasma were determined by UPLC-MS/MS.

[2] = system: CYP3A4; conditions: cited from earlier work
[3] = cited from earlier work
[4] = system: CYP2C19; assay: clinical; conditions: human, in vivo; for Cl/F / Tmax: po
Experimental: This was an open-label clinical trial with fixed sequence design consisting of a total of seven inpatient study days and eight short visits for each participant.
The CYP2C19 perpetrator fluconazole (Fluconazol HEXAL® 200 mg, HEXAL) was given for 5 days in oral doses of 400 mg on day 1 and 200 mg on days 2 to 5. […] A diary was used to ensure correct intake of fluconazole and rifampicin at home.
as §1
The statistical analysis was performed using Prism 8.4 (GraphPad Software Inc., La Jolla, CA, USA).

[5] = system: CYP2C19; conditions: cited from earlier work
[6] = alteration of gastric pH; cited from earlier work

Cc1ncc2n1-c1ccc(Cl)cc1C(c1ccccc1F)=NC2 [midazolam]
midazolam metabolic clearance, % of the baseline value ([1]; with 100 µg omeprazole): 28% | midazolam metabolic clearance, % of the baseline value ([1]; with 20 mg omeprazole): 26% | increase of midazolam metabolic clearance ([1]; during rifampicin): 10–12 fold | increase of midazolam metabolic clearance ([1]; rifampicin day 5): 10.1 fold | increase of midazolam metabolic clearance ([1]; rifampicin day 7): 11.9 fold | midazolam AUC decrease to % of the baseline value ([2]; 600 mg rifampicin daily over 5 days): 4.1% | increase of midazolam AUC ([2]; oral 7.5 mg midazolam during fluconazole treatment): 3.6 fold

OC(Cn1cncn1)(Cn1cncn1)c1ccc(F)cc1F [fluconazole]
effect of changes in gastric pH on fluconazole Cmax, tmax, and AUC [3]: did not affect

COc1ccc2[nH]c([S+]([O-])Cc3ncc(C)c(OC)c3C)nc2c1 (stereo not shown) [omeprazole]
dose-normalized Cmax [4]: 896 ng/mL | clearance ([4]; 100 ug, omeprazole clearance): 476 mL/min | higher AUC in the poor metabolizer in comparison with the EM group ([4]; 20 mg): 6.5 fold | higher Cmax in the poor metabolizer in comparison with the EM group ([4]; 20 mg): threefold | Cl/F ([4]; 100 ug): 379 mL/min | Tmax ([4]; 100 ug): 21.8 min | Tmax ([4]; 100 ug, tmax (harmonic mean)): 15 min | Cl/F ([4]; 20 mg): 388 mL/min | Tmax ([4]; 20 mg, tmax (harmonic mean)): 178 min | increase of omeprazole AUC ([5]; 100 mg fluconazole daily for 5 days, healthy volunteers): sixfold | increase of omeprazole AUC ([5]; 8 days of 50 mg fluconazole daily): 2.7–2.8 fold | omeprazole AUC decreased to ([5]; rifampicin 150 mg, 8 days, omeprazole microdose): 22% | omeprazole AUC decreased to ([5]; rifampicin 150 mg, 9 days, 20 mg omeprazole): 20% | omeprazole AUC decreased to ([5]; rifampicin 6 days, 450 mg daily, 20 mg omeprazole): 12.9% | bioequivalence to an encapsulated formulation ([5]; uncoated omeprazole with 48 mmol sodium bicarbonate): bioequivalent

Cc1c(O)cccc1C(=O)N[C@@H](CSc1ccccc1)[C@H](O)CN1C[C@H]2CCCC[C@H]2C[C@H]1C(=O)NC(C)(C)C [nelfinavir]
reduction of nelfinavir AUC by omeprazole [6]: approximately one third | reduction of nelfinavir Cmax by omeprazole [6]: approximately one third
